Measurements published in patent publication EP0003892A1, “Beta-lactam compounds, processes for their production, compositions containing them and intermediates of use in their preparation” (GLAXO GROUP LIMITED, priority 1978, dated 1979).
≈ marks a conversion by molar mass, not a printed value. Where two headings read alike, the source gives them in different places.

What was measured:
Experiment in all cases: Determination of Minimum Inhibitory Concentrations (MIC), agar dilution
Assay type in all cases: cell-based
E. cloacae 1321E = conditions: Enterobacter cloacae
Protocol: (§1) 1. Determination of Minimum Inhibitory Concentrations (MIC)
(§2) Serial two-fold dilutions of freshly prepared test solutions were made into Oxoid No. 1 Nutrient agar with or without added enrichment and poured into petri diches. Plates were inoculated with a multipoint inoculator with inoculum containing approximately […] of the organisms shown in the following Tables, all of which organisms are clinical isolates. The MIC, quoted in the Tables as µg/ml, was read after 18 hours incubation at 37°C as the lowest concentration which inhibited growth.

E. cloacae 1051E = conditions: Enterobacter cloacae
Protocol: as §1, §2

E. coli 851E = conditions: Escherichia coli
Protocol: as §1, §2

H. influenzae 1184E = conditions: Haemophilus influenzae
Protocol: as §1, §2

Micrococcus Sp 1810E = conditions: SP1810E
Protocol: as §1, §2

K. aerogenes 1522E = conditions: Klebsiella aerogenes
Protocol: as §1, §2

Staph.aureus 853E = conditions: Staphylococcus aureus
Protocol: as §1, §2

Pr. mirabilis 431E = conditions: Proteus mirabilis
Protocol: as §1, §2

**Q.** Which MIC (E. cloacae 1321E; 1321E, 18 h) does the source give for `CC(=O)SCCC1=C(C(=O)[O-])N2C(=O)CC2S1.[K+]` (racemic) [Example 29, Potassium (5RS)-2-(2-acetylthioethyl)pen-2-em-3-carboxylate] here?
**A.** Its MIC is 1 µg/mL.

**Q.** And the MIC (E. cloacae 1051E; 1051E, 18 h)?
**A.** Its MIC is 16 µg/mL.

**Q.** And the MIC (E. coli 851E; 851E, 18 h)?
**A.** Its MIC is 1 µg/mL.

**Q.** What about the MIC (H. influenzae 1184E; 1184E, 18 h) of the same compound?
**A.** Its MIC is 8 µg/mL.

**Q.** What about the MIC (Micrococcus Sp 1810E; Micrococcus, 18 h) of the same compound?
**A.** Its MIC is < 0.1 µg/mL.

**Q.** And the MIC (K. aerogenes 1522E; 1522E, 18 h)?
**A.** Its MIC is 2 µg/mL.

**Q.** What about the MIC (Staph.aureus 853E; 853E, 18 h) of the same compound?
**A.** The MIC was < 0.1 µg/mL.

**Q.** And the MIC (Pr. mirabilis 431E; 431E, 18 h)?
**A.** Its MIC is 1 µg/mL.

**Q.** For `CCOC(=S)SCCC1=C(C(=O)[O-])N2C(=O)CC2S1.[K+]` (racemic) [Example 36, Potassium (5RS)-2-(2-ethoxythiocarbonylthioethyl)pen-2-em-3-carboxylate], which MIC (E. cloacae 1321E; 1321E, 18 h) is on record?
**A.** The MIC was 16 µg/mL.

**Q.** What about the MIC (E. cloacae 1051E; 1051E, 18 h) of the same compound?
**A.** Its MIC is 62 µg/mL.

**Q.** What about the MIC (E. coli 851E; 851E, 18 h) of the same compound?
**A.** The MIC was 8 µg/mL.

**Q.** What about the MIC (H. influenzae 1184E; 1184E, 18 h) of the same compound?
**A.** The MIC was 4 µg/mL.

**Q.** And the MIC (Micrococcus Sp 1810E; Micrococcus, 18 h)?
**A.** Its MIC is < 0.1 µg/mL.

**Q.** And the MIC (K. aerogenes 1522E; 1522E, 18 h)?
**A.** The MIC was 16 µg/mL.

**Q.** What about the MIC (Staph.aureus 853E; 853E, 18 h) of the same compound?
**A.** Its MIC is < 0.1 µg/mL.

**Q.** What about the MIC (Pr. mirabilis 431E; 431E, 18 h) of the same compound?
**A.** Its MIC is 8 µg/mL.

**Q.** Which MIC (E. cloacae 1321E; E. cloacae 1321E, clinical isolate, Oxoid No. 1 Nutrient agar, read after 18 hours incubation at 37°C, read-out: MIC) does the source give for `CN(C)C(=S)SCCC1=C(C(=O)O)N2C(=O)CC2S1` (racemic) [Example 38, (5RS)-2-(2-N,N-Dimethylthiocarbamoylthioethyl)pen-2-em-3-carboxylic acid] here?
**A.** The MIC was 31 µg/mL (≈ 97.3 µM).

**Q.** And the MIC (E. cloacae 1051E; E. cloacae 1051E, clinical isolate, Oxoid No. 1 Nutrient agar, read after 18 hours incubation at 37°C, read-out: MIC)?
**A.** Its MIC is > 250 µg/mL.

**Q.** And the MIC (E. coli 851E; E. coli 851E, clinical isolate, Oxoid No. 1 Nutrient agar, read after 18 hours incubation at 37°C, read-out: MIC)?
**A.** The MIC was 31 µg/mL (≈ 97.3 µM).

**Q.** And the MIC (H. influenzae 1184E; H. influenzae 1184E, clinical isolate, Oxoid No. 1 Nutrient agar, read after 18 hours incubation at 37°C, read-out: MIC)?
**A.** Its MIC is 2 µg/mL (≈ 6.28 µM).

**Q.** And the MIC (Micrococcus Sp 1810E; Micrococcus Sp 1810E, clinical isolate, Oxoid No. 1 Nutrient agar, read after 18 hours incubation at 37°C, read-out: MIC)?
**A.** The MIC was < 0.1 µg/mL.

**Q.** And the MIC (K. aerogenes 1522E; K. aerogenes 1522E, clinical isolate, Oxoid No. 1 Nutrient agar, read after 18 hours incubation at 37°C, read-out: MIC)?
**A.** The MIC was 31 µg/mL (≈ 97.3 µM).

**Q.** And the MIC (Staph.aureus 853E; Staph.aureus 853E, clinical isolate, Oxoid No. 1 Nutrient agar, read after 18 hours incubation at 37°C, read-out: MIC)?
**A.** The MIC was < 0.1 µg/mL.

**Q.** What about the MIC (Pr. mirabilis 431E; Pr. mirabilis 431E, clinical isolate, Oxoid No. 1 Nutrient agar, read after 18 hours incubation at 37°C, read-out: MIC) of the same compound?
**A.** Its MIC is 16 µg/mL (≈ 50.2 µM).
